The test system of assay [1] is HIV. Description: Tests on products against HIV in cell culture (T-cell culture assay, giant cell formation in infected lymphocytes). In kind it is cell-based. The conditions noted are these: Human immunodeficiency virus 1, 72 h, lowest product concentration at which no giant cells occurred, 37° C., 3 days. As to the method: Tests on products against HIV in cell culture
RPMI pH 6.8 Complete medium additionally contains 20% fetal calf serum and 40 IU/ml recombinant interleukin 2.
Lymphocytes isolated from fresh donor blood by means of ®Ficoll gradient centrifugation are cultivated in complete medium with the addition of 2 μg/ml phytohemagglutinin (Wellcome) at 37° C. under 5% CO2 for 36 h. The cells are, after addition of 10% DMSO, frozen at a cell density of 5×10^6 and stored in liquid nitrogen. For the test, the cells are thawed, washed in RPMI medium and cultivated in complete medium for 3-4 days.
The test products were dissolved in DMSO and adjusted with complete medium to a concentration of 1 mg/ml. 0.4 ml of medium was placed in 24-well dishes. After addition of 0.1 ml of the dissolved product to the upper row of the dish, a geometric dilution series was produced by transferring 0.1 ml each time. Product-free controls always received 0.4 ml of complete medium with 0.5% DMSO. Lymphocyte cultures with a cell count of 5×10^5 cells/ml were infected by adding 1/50 of the volume of supernatant from HIV-infected lymphocyte cultures. The titer of these culture supernatants was determined by endpoint dilution to be 1-5×10^6 infectious units/mi. After incubation at 37° C. for 30 min, the infected lymphocytes were spun down and taken up again in the same volume of medium. 0.6 ml portions of this cell suspension were placed in all the wells of the assay plate. The mixtures were incubated at 37° C. for 3 days.
The infected cell cultures were examined under the microscope for the presence of giant cells which indicate active virus replication in the culture. The lowest product concentration at which no giant cells occurred was determined as the HIV inhibitory concentration. As a control, the supernatants from the culture plates were examined for the presence of HIV antigen with the aid of an HIV antigen assay in accordance with the information from the manufacturer (Organon).

Assay [2] deals with T1, HIV reverse transcriptase (Human immunodeficiency virus type 1 group M subtype B, UniProt P04585).
T1 construct: The RT enzyme (cloned from HIV in E. coli); purchased HT-Biotechnology LTD, Cambridge, UK; host or cells: E. coli
Description: Inhibition of HIV reverse transcriptase (scintillation proximity assay, SPA). The assay is classed as biochemical. The conditions noted are these: RT-SPA; RT enzyme cloned from HIV in E. coli; 60 min (37° C.). Here is the method:
Investigation of the substances for inhibition of HIV reverse transcriptase
The reverse transcriptase (RT) activity was determined by means of a scintillation proximity assay (SPA). The reagent kit for the RT-SPA was purchased from Amersham/Buchler (Braunschweig). The RT enzyme (cloned from HIV in E. coli) originated from HT-Biotechnology LTD, Cambridge, UK.
The assay was carried out according to the method manual of the manufacturer Amersham--with the following modifications:
Bovine serum albumin was added to the final concentration of 0.5 mg/ml to the assay buffer.
The assay was carried out in Eppendorf reaction vessels with a volume of 100 μl of mixture.
The RT concentrate from the manufacturer (5000 U/ml) was diluted to an activity of 15 U/ml in tris-HCl buffer 20 mM; pH 7.2; 30% glycerol.
The incubation time for the mixtures was 60 min (37° C.).
After stopping the reaction and "developing" with the bead suspension, 130 μl of mixture were transferred into 4.5 ml of tris-HCl buffer, 10 mM; pH 7.4; 0.15 M NaCl and the tritium activity was measured in a β-counter.
For a preliminary test of the inhibitory activity, the substances were dissolved in DMSO (stock solution c=1 mg/ml) and tested diluted 10^-1, 10^-2, 10^-3 etc. in DMSO.
To determine IC50 values, the inhibitor stock solutions were further diluted in tris-HCl buffer, 50 mM, pH 8 and tested in suitable concentrations.
The concentration appertaining to 50% enzyme inhibition was found from the graph of RT activity against the logarithm of the concentration of the particular test substance.
(In general: In a scintillation proximity assay essentially only radioactivity close to the scintillant gives light.)

SMILES strings stand for the structures. In brackets after ≈: the same amount, converted by molar mass.

The IC50 is the concentration that inhibits the measured activity by half.

The molecule `C[C@@H]1Nc2nc(Cl)ccc2NC1=O` [Example 2, (3S)-6-Chloro-3-methyl-3,4-dihydro-1,4,5-triazanaphthalen-2(1H)-one] displayed an MIC in assay [1] above 0.8 µg/mL. The IC50 in assay [2] lay in the range of 5.06 to 50.6 µM.
The corresponding values for `CSCC1C(=S)Nc2cccnc2N1C(=O)OC(C)C` (stereo not drawn) [Example 37, 4-Isopropoxycarbonyl-3-methylthiomethyl-3,4-dihydro-1,4,5-triazanaphthalene-2(1H)-thione] are above 1 µg/mL and 0.321 to 3.21 µM.
The corresponding values for `CC(C)=CCN1c2nc(Cl)ccc2NC(=O)[C@@H]1C` [Example 8, (3S)-6-Chloro-3-methyl-4-(3-methyl-2-butenyl)-3,4-dihydro-1,4,5-triazanaphthalen-2(1H)-one] are 0.08 µg/mL (≈ 0.301 µM) and 0.376 to 3.76 µM.
Regarding `C=C(C)OC(=O)N1c2nc(C)ccc2NC(=S)C1C` (racemic) [Example 20, (3RS)-4-(Isopropenyloxycarbonyl)-3,6-dimethyl-3,4-dihydro-1,4,5-triazanaphthalene-2(1H)-thione], the IC50 in assay [2] was in the range of 3.61 to 36.1 µM.
Regarding `CC(C)OC(=O)N1c2ncccc2NC(=O)C1CS(C)(=O)=O` (stereo not drawn) [Example 41, 3-Methylsulfonylmethyl-4-isopropoxycarbonyl-3,4-dihydro-1,4,5-triazanaphthalen-2(1H)-one], the MIC in assay [1] was above 2 µg/mL.
`C[C@H]1C(=O)Nc2ccc(Cl)nc2N1Cc1ccccn1` [Example 11, (3S)-6-Chloro-3-methyl-4-(2-picolyl)-3,4-dihydro-1,4,5-triazanaphthalen-2(1H)-one] returned an MIC in assay [1] of 0.2 µg/mL (≈ 0.693 µM). In assay [2], the IC50 lay within 0.346 to 3.46 µM.
Molecule `C=C(C)OC(=O)N1C(=O)[C@H](C)N(C(=O)OC(=C)C)c2nc(Cl)ccc21` [Example 10, (3S)-6-Chloro-1,4-his(isopropenyloxycarbonyl)-3-methyl-3,4-dihydro-1,4,5-triazanaphthalen-2(1H)-one] registered an MIC in assay [1] of 1 µg/mL (≈ 2.73 µM). In assay [2], this molecule gave an IC50 of 0.273 to 2.73 µM.

For the origin of these results see US5424311A, “Azaquinoxalines and their use” (Hoeschst Aktiengesellschaft, priority 1992, dated 1995).
